Data taken from patent US4200755A, “2-Hydro xy-5-[1-hydroxy-2-[4-(2-oxo-1-benzimidazolinyl)piperidino]ethyl]benzoic acid derivatives” (Richardson-Merrell Inc., priority 1979, dated 1980).
Where a name gives a salt, the structure may show the parent alone.

What was measured:
[1] = biological target: T1, β-adrenergic receptor (Cavia porcellus, UniProt H0W3H1); experiment: β-Adrenergic receptor blocking activity in vitro, isolated guinea pig atria preparation, isoproterenol as agonist; format: cell-based; conditions: isolated guinea pig atria (increase in rate), read-out: pA2 β (converted)
T1 construct: isolated guinea pig atria preparation; from tissue; host or cells: guinea pig atria
T1 sequence (H0W3H1 1-470): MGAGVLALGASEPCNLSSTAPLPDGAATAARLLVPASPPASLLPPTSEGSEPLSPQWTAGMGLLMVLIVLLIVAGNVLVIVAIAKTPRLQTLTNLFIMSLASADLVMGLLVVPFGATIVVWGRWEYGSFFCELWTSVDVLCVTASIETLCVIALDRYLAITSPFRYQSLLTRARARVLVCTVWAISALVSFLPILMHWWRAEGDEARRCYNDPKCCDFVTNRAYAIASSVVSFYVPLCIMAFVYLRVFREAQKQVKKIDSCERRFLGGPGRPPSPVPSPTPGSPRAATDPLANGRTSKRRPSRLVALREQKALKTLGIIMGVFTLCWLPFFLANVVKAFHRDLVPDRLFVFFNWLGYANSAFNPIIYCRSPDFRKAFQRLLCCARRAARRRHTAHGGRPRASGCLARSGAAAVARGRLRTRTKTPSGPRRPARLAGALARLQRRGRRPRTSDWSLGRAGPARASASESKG
Experimental: (§1) The following Example is illustrative of the α and β-adrenergic blocking activity and the direct spasmolytic activity for the compounds of this invention.
(§2) β-Adrenergic receptor blocking activity is determined in vitro by performing cumulative dose-response experiments in the isolated guinea pig atria preparation using isoproterenol as the agonist. The response (increase in rate) of the guinea pig atria preparation in the presence of logarithmically increasing concentrations of the compounds being tested are expressed as percent of the maximal attainable response. Relative antagonistic potency is expressed as a pA2 value, as defined above.

[2] = system: isolated guinea pig ileum preparation; experiment: Direct spasmolytic activity in vitro, isolated guinea pig ileum preparation, barium chloride as agonist; format: cell-based
Experimental: as §1
as §2, with “Direct spasmolytic” for “β-Adrenergic receptor blocking”, “dose response” for “dose-response”, “ileum” for “atria”, “barium chloride” for “isoproterenol”, “The contractile” for “The”, “response” for “response (increase in rate)”

[3] = system: α-adrenergic receptor; experiment: α-Adrenergic receptor blocking activity in vitro, isolated rabbit aortic strip preparation, norepinephrine as agonist; format: cell-based
Experimental: as §1
α-Adrenergic receptor blocking activity is determined in vitro by performing cumulative dose-response experiments in the isolated rabbit aortic strip preparation using norepinephrine as the agonist. The contractile response of the rabbit strip preparation in the presence of logarithmically increasing concentrations of the compounds being tested are expressed as percent of the maximal attainable response. Relative antagonistic potency is expressed as a pA2 value.

[4] = system: spontaneously hypertensive rats (SHR); experiment: Antihypertensive activity in spontaneously hypertensive rats (SHR), systolic blood pressure; format: in vivo, rat (SHR, Okomoto-Aoki strain); conditions: oral 50 mg/kg
Experimental: The following Example illustrates the antihypertensive activity for the compounds of this invention. Antihypertensive activity is determined in spontaneously hypertensive rats (SHR) of the Okomoto-Aoki strain. Systolic blood pressure of the SHR is measured from the caudal artery by means of an indirect method utilizing a photocell transducer/tail cuff occluder system. Time response relationships are determined for each compound following an oral dose of 50 mg/kg. Data are expressed as mm of Hg decrease from control values. Statistical significance is determined using a 2 tailed "t" test comparing drug treatment response values to those obtained from concurrent vehicle treated animals.

| SMILES | Kb [1] | pA2 BaCl2 (Direct Spasmolytic Activity) [2] | pA2 α [3] | lowers blood pressure (decrease from control values) ([4]; after 1 hour) | lowers blood pressure (decrease from control values) ([4]; after 4 hours) |
| --- | --- | --- | --- | --- | --- |
| COC(=O)c1cc(C(O)CN2CCC(n3c(=O)[nH]c4ccccc43)CC2)ccc1O (stereo not drawn) [Compound 1, methyl 2-hydroxy-5-[1-hydroxy-2-[4-(2-oxo-1-benzimidazolinyl)piperidino]ethyl]benzoate hydrochloride] | 1.95 µM | 5.90 | 6.94 |  |  |
| Cc1ccc(N(CC2=NCCN2)c2cccc(O)c2)cc1 [phentolamine, reference compound] | > 10 µM |  |  |  |  |
| CCNC(=O)c1cc(C(O)CN2CCC(n3c(=O)[nH]c4ccccc43)CC2)ccc1O (stereo not drawn) [Compound 3, 2-hydroxy-5-[1-hydroxy-2-[4-(2-oxo-1-benzimidazolinyl)piperidino]ethyl]-N-ethylbenzamide hydrochloride] | > 4.17 µM | 5.16 | 6.63 | 22 mm Hg | 51 mm Hg |
| NC(=O)c1cc(C(O)CN2CCC(n3c(=O)[nH]c4ccccc43)CC2)ccc1O (stereo not drawn) [Compound 2, 2-hydroxy-5-[1-hydroxy-2-[4-(2-oxo-1-benzimidazolinyl)piperidino]ethyl]benzamide hydrochloride monohydrate] | 3.55 µM | < 4.20 | 6.70 |  |  |
